According to US10670605B2, “Cysteine reactive probes and uses thereof” (The Scripps Research Institute, priority 2015, dated 2020):
One block for each compound: values may come before it.

Tests used:
Assay in all cases: Competitive isoTOP-ABPP in situ (fragment-treated cells)
Assay type in all cases: cell-based
[1] = target: cysteines in MDA-MB-231 and Ramos cells (Homo sapiens, UniProt Q8NFF5)
[2] = target: cysteines in MDA-MB-231 and Ramos cells (Homo sapiens, UniProt Q9Y5T5); conditions: 200 μM, insitu
Chain of cysteines in MDA-MB-231 and Ramos cells (Homo sapiens, UniProt Q9Y5T5) (Q9Y5T5 whole entry): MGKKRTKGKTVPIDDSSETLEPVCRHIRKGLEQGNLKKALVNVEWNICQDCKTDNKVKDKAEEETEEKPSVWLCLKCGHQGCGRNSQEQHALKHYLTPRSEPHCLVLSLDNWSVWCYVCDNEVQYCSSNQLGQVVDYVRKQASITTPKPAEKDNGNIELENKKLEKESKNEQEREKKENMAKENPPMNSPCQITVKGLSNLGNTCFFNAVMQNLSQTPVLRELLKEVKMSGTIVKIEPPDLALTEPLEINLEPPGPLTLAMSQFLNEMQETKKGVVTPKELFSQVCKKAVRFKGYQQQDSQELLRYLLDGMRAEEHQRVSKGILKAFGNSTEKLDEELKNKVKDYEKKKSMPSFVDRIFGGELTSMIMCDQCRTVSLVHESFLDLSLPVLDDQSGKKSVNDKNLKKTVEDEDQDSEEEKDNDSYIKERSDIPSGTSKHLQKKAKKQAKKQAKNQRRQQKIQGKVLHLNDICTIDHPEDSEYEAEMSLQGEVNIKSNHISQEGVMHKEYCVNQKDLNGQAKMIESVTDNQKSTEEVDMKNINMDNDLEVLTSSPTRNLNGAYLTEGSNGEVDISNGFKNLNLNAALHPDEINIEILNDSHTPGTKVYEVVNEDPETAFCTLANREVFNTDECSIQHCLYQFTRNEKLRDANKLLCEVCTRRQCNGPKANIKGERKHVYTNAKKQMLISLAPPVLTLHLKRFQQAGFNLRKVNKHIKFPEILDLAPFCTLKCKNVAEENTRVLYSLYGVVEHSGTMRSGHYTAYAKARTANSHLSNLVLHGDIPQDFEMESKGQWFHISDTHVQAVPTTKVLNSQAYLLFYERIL

[3] = target: T1, cysteines in MDA-MB-231 and Ramos cells (Homo sapiens, UniProt Q9C0I1); conditions: 200 μM, insitu
T1 sequence (Q9C0I1 1-747): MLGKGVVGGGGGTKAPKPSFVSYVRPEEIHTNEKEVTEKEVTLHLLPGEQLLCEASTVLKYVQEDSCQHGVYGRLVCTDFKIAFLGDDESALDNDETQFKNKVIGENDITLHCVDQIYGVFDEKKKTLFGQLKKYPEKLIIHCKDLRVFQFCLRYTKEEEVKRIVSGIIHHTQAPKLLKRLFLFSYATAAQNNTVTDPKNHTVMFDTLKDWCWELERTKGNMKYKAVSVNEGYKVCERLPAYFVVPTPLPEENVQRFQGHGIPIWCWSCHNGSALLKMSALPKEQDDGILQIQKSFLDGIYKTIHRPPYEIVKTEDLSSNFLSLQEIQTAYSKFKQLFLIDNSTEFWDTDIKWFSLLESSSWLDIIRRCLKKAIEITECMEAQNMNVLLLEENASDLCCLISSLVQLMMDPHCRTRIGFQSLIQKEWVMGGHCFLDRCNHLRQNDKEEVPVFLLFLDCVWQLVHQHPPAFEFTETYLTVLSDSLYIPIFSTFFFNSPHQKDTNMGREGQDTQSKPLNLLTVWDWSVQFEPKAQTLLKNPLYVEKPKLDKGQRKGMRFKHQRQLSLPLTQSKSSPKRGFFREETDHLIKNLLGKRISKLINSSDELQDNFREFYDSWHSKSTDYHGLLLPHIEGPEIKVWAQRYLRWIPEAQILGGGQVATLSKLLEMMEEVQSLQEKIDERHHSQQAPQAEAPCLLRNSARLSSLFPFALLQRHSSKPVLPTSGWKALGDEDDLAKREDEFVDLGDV

[4] = target: T2, cysteines in MDA-MB-231 and Ramos cells (Homo sapiens, UniProt Q8N2W9); conditions: 200 μM, insitu
T2 sequence (Q8N2W9 1-510): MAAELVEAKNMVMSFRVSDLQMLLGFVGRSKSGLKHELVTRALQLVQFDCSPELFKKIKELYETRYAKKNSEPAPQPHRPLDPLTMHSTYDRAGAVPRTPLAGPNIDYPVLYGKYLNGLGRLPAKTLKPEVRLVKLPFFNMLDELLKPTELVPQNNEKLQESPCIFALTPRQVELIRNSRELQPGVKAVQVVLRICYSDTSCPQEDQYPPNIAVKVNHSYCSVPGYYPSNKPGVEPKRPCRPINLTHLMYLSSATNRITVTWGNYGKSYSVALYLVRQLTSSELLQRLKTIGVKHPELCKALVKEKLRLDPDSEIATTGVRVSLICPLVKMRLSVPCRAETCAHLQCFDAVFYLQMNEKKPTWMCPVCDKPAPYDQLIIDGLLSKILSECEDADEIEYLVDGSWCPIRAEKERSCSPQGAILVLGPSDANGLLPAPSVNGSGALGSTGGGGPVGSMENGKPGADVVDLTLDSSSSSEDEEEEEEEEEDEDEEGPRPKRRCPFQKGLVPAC

[5] = target: T3, cysteines in MDA-MB-231 and Ramos cells (Homo sapiens, UniProt Q99798); conditions: 200 μM, insitu, 231
T3 sequence (Q99798 28-780): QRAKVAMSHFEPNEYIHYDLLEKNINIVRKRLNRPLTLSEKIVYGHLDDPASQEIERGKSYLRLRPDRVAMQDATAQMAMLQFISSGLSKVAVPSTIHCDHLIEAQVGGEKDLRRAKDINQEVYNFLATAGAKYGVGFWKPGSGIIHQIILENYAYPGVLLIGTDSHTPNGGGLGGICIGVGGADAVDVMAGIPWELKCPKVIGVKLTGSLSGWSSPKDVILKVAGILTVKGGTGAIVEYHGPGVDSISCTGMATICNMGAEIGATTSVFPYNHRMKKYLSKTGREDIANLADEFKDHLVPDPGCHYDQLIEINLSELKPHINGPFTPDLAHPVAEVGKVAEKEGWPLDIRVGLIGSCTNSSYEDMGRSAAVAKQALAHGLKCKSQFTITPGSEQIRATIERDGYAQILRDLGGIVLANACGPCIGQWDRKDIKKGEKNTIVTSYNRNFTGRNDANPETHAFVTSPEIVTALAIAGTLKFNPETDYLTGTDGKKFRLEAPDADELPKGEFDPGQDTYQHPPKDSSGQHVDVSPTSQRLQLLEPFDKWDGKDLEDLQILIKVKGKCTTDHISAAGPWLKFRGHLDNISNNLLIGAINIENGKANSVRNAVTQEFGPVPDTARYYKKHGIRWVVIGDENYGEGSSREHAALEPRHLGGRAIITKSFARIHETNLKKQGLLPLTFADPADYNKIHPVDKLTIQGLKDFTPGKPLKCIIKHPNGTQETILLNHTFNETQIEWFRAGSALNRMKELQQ

[6] = target: T4, cysteines in MDA-MB-231 and Ramos cells (Homo sapiens, UniProt Q9UPT9)
T4 sequence (Q9UPT9 1-525): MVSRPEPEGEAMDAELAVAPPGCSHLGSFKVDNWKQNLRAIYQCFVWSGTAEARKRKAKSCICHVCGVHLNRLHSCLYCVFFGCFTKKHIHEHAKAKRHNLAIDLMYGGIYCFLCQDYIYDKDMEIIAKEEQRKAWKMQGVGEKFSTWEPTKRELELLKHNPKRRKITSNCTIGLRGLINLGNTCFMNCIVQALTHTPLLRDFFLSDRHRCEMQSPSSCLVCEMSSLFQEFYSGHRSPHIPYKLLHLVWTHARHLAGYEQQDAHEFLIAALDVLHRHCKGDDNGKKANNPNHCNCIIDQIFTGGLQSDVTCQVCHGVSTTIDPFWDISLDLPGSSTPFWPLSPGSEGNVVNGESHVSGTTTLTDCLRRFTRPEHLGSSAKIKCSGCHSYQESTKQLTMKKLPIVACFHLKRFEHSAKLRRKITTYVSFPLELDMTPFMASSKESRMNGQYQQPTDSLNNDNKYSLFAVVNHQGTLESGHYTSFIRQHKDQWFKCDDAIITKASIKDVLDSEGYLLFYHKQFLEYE

[7] = target: cysteines in MDA-MB-231 and Ramos cells (Homo sapiens, UniProt Q8IU81); conditions: 200 μM, insitu, 231
Chain of cysteines in MDA-MB-231 and Ramos cells (Homo sapiens, UniProt Q8IU81) (Q8IU81 whole entry): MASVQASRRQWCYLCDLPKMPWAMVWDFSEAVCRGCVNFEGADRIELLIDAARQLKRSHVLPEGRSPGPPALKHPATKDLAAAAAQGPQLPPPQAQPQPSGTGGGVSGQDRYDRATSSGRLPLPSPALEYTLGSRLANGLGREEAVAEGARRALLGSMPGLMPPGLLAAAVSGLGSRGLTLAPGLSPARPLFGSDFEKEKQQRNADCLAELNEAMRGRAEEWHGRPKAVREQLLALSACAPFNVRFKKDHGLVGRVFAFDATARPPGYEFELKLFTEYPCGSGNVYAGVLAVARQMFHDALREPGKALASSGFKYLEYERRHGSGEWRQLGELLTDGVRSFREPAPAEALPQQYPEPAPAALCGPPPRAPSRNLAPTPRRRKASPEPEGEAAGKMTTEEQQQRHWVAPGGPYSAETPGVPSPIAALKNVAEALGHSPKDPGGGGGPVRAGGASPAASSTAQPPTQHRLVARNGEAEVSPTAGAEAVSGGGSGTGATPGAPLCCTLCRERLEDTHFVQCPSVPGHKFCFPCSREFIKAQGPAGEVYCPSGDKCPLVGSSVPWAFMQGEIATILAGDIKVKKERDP

Chain of cysteines in MDA-MB-231 and Ramos cells (Homo sapiens, UniProt Q8NFF5) (Q8NFF5 18-587): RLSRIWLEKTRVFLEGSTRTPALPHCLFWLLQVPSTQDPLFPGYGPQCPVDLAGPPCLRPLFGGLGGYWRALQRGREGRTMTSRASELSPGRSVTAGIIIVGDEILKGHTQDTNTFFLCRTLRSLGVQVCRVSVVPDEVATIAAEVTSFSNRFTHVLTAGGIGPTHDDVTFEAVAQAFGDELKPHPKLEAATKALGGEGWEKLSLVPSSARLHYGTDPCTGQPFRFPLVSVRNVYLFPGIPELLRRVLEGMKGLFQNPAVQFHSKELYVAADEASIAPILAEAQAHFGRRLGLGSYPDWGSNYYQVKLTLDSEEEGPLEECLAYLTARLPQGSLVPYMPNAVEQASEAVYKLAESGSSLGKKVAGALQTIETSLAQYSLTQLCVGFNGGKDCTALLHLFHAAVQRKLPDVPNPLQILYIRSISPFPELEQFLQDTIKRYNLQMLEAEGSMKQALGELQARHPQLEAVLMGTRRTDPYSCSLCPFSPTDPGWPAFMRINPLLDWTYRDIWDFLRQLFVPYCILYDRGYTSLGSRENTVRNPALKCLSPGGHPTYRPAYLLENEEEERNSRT

isoTOP-ABPP reactivity Q8NFF5_C499 FLAD1 ([1]; 200 μM, insitu, 231): 6.2
Compound: COc1ccc2c(c1)CCCN2C(=O)CCl [compound 2]

isoTOP-ABPP ratio, Q9Y5T5_C205 [2]; 231: 1.2
Compound: CC(C)CCOCCNC(=O)CCl [compound 27]

isoTOP-ABPP ratio, cysteine Q9C0I1_C152 [3]; 231: 20.0
Compound: O=C(CCl)NC(=O)NC12CC3CC(CC(C3)C1)C2 [compound 12]

isoTOP-ABPP ratio, cysteine Q8N2W9_C326 [4]; 231: 1.0 | isoTOP-ABPP ratio, cysteine Q99798_C385 [5]: 2.0 | isoTOP-ABPP ratio, cysteine Q9Y5T5_C205 [2]; 231: 0.9 | isoTOP-ABPP ratio, cysteine Q9C0I1_C152 [3]; 231: 0.7
Compound: O=C(CCl)NC12CC3CC(CC(C3)C1)C2 [compound 21]

isoTOP-ABPP ratio, cysteine Q9UPT9_C171 ([6]; 200 μM, insitu, ramos): 9.3 | isoTOP-ABPP ratio, cysteine Q8IU81_C363 [7]: 5.9 | isoTOP-ABPP ratio, cysteine Q8N2W9_C326 [4]; 231: 4.5 | isoTOP-ABPP ratio, cysteine Q99798_C385 [5]: 0.7
Compound: O=C(CCl)N1CCN(S(=O)(=O)c2ccccc2F)CC1 [compound 10]

isoTOP-ABPP ratio Q8N2W9_C326 [4]; 231: 0.8 | isoTOP-ABPP ratio Q99798_C385 [5]: 0.1
Compound: Cc1ccc(C=C(C#N)C(=O)NCCN2CCOCC2)cc1 [compound 41]

isoTOP-ABPP ratio, cysteine Q9UPT9_C171 ([6]; 100 μM in situ 231): 0.8 | isoTOP-ABPP ratio, cysteine Q8NFF5_C499 ([1]; 100 μM in situ 231): 16
Compound: Cn1cc(S(=O)(=O)N2CCOCC2)cc1C(=O)NC(=O)CCl [compound 11]

isoTOP-ABPP ratio Q8IU81_C363 [7]: 1.7
Compound: CC1CCc2ccccc2N1C(=O)CCl (centres unmarked) [compound 45]

isoTOP-ABPP ratio Q8IU81_C363 [7]: 1.3 | isoTOP-ABPP ratio Q8N2W9_C326 [4]; 231: 0.9 | isoTOP-ABPP ratio, Q9Y5T5_C205 [2]; 231: 1.5
Compound: C=CC(=O)Nc1cc(F)c(N2CCN(C(=O)OC(C)(C)C)CC2)c(F)c1 [compound 38]

isoTOP-ABPP ratio Q8IU81_C363 [7]: 0.7
Compound: C=CC(=O)N(Cc1cccnc1)c1cc(C(F)(F)F)cc(C(F)(F)F)c1 [compound 31]

isoTOP-ABPP ratio, cysteine Q9UPT9_C171 ([6]; 200 μM, insitu, ramos): 3.2 | isoTOP-ABPP ratio, cysteine Q8N2W9_C326 ([4]; ramos): 20.0 | isoTOP-ABPP ratio, cysteine Q9Y5T5_C205 ([2]; ramos): 20.0 | isoTOP-ABPP ratio, cysteine Q9C0I1_C152 ([3]; ramos): 6.5
Compound: O=C(CCl)NCCc1c[nH]c2ccccc12 [compound 13]

isoTOP-ABPP ratio Q9C0I1_C152 ([3]; ramos): 4.6 | isoTOP-ABPP ratio Q8NFF5_C499 ([1]; 200 μM, insitu, ramos): 3.4
Compound: O=C(CCl)N1CCN(CC(=O)N2CCOCC2)CC1 [compound 29]
